Results as given in publication PMC6556873, “Rapid Covalent-Probe Discovery by Electrophile-Fragment Screening” (Journal of the American Chemical Society, 2019).
Read-outs that look alike come from different tables or passages of the source.

What was measured:
[1] = target: T1, OTUB2 (OTUB2A) (Homo sapiens, UniProt Q96DC9); assay: intact protein LC/MS labeling; format: binding; conditions: covalent; 24 h, 4 °C
T1 construct: full length residues 1-234, E. coli BL21(DE3)-R3, His tag removed by TEV, construct 27312 Da
T1 sequence (Q96DC9 1-234): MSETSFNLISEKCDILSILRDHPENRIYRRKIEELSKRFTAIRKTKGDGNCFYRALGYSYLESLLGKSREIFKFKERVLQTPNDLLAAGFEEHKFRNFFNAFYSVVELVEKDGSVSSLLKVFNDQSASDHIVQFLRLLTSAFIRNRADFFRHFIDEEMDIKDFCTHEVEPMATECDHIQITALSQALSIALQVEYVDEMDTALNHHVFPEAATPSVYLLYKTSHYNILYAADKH

[2] = target: T2, USP8 (Homo sapiens, UniProt P40818); assay: intact protein LC/MS labeling; format: binding; conditions: covalent; promiscuous compound; 24 h, 4 °C, 2 μM protein, pools of five, pH 7.5
T2 construct: residues 705-1081, E. coli, produced as NUDT7 (His tag removed by TEV), construct 44429 Da
T2 sequence (P40818 705-1081): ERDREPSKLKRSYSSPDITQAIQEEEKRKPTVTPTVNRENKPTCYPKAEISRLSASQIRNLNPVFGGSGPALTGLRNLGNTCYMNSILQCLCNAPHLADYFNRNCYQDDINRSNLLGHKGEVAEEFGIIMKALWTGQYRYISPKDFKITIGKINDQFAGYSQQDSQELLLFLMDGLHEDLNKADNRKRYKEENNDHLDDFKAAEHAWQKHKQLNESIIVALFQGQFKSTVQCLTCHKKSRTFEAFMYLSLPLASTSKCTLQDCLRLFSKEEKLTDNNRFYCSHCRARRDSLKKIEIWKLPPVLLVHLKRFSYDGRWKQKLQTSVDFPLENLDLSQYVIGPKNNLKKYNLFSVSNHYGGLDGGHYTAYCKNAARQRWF

[3] = target: T3, NNMT (hNNMT) (Homo sapiens, UniProt P40261); assay: intact protein LC/MS labeling; format: binding; conditions: covalent; promiscuous compound; 24 h, 4 °C, 2 μM protein, pools of five, pH 7.5
T3 construct: wild type, N-terminal His6 tag kept (no cleavage described), E. coli, construct 31248 Da
T3 sequence (P40261 1-264): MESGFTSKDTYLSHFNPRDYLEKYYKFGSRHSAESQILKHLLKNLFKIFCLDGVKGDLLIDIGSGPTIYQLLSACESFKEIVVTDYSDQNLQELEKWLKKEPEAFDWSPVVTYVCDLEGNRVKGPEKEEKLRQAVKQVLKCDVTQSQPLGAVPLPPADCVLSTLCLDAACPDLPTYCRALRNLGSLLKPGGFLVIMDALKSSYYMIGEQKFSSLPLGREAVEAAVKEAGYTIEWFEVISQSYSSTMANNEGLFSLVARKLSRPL

[4] = target: T4, BSA (Bos taurus, UniProt P02769); set-up: Intact protein LC/MS covalent labelling, fragments in pools of five, 200 uM each, 4 °C; conditions: 24 h, 4 °C, pool of five; 200 µM; covalent
T4 construct: gene ALB

[5] = target: T3, NNMT (hNNMT); set-up: Intact protein LC/MS covalent labelling, fragments in pools of five, 200 uM each, 4 °C; conditions: 24 h, 4 °C, pool of five; 200 µM; covalent
[6] = target: T5, NUDT7 (Homo sapiens, UniProt P0C024); set-up: Intact protein LC/MS covalent labelling, fragments in pools of five, 200 uM each, 4 °C; conditions: 24 h, 4 °C, pool of five; 200 µM; covalent
T5 construct: residues 14-235, E. coli, pNIC28-Bsa4, N-terminal His6 tag removed by TEV, construct 26672 Da

[7] = target: T1, OTUB2 (OTUB2A); set-up: Intact protein LC/MS covalent labelling, fragments in pools of five, 200 uM each, 4 °C; conditions: 24 h, 4 °C, pool of five; 200 µM; covalent
[8] = target: T6, PCAF (Homo sapiens, UniProt Q92831); set-up: Intact protein LC/MS covalent labelling, fragments in pools of five, 200 uM each, 4 °C; conditions: 24 h, 4 °C, pool of five; 200 µM; covalent
T6 construct: gene KAT2B

[9] = in vitro; set-up: species or system CCD841, HEK293; conditions: human, hb2 cells, read-out: HB-2 Cells Viability (%)
[10] = in vitro; set-up: species or system HB2, HEK293; conditions: human, ccd841 cells
[11] = in vitro; set-up: species or system HB2, CCD841; conditions: human, hek293 cells
[12] = target: T5, NUDT7; assay: X-ray crystal structure, soak; conditions: noncovalent; putative substrate binding region
[13] = target: T5, NUDT7; assay: intact protein LC/MS labeling; format: binding; conditions: covalent; 24 h, 4 °C, 2 μM protein, pools of five, pH 7.5
[14] = target: T1, OTUB2 (OTUB2A); assay: intact protein LC/MS labeling; format: binding; conditions: covalent; 24 h, 4 °C; remark: listed apart in the source
[15] = target: T5, NUDT7; assay: X-ray cocrystal structure; format: binding; conditions: covalent; C73
[16] = target: T5, NUDT7; assay: RapidFire MS acetyl-CoA hydrolysis, kobs vs [inhibitor]; format: biochemical

T4 sequence (P02769 whole entry, the tested form may be a part): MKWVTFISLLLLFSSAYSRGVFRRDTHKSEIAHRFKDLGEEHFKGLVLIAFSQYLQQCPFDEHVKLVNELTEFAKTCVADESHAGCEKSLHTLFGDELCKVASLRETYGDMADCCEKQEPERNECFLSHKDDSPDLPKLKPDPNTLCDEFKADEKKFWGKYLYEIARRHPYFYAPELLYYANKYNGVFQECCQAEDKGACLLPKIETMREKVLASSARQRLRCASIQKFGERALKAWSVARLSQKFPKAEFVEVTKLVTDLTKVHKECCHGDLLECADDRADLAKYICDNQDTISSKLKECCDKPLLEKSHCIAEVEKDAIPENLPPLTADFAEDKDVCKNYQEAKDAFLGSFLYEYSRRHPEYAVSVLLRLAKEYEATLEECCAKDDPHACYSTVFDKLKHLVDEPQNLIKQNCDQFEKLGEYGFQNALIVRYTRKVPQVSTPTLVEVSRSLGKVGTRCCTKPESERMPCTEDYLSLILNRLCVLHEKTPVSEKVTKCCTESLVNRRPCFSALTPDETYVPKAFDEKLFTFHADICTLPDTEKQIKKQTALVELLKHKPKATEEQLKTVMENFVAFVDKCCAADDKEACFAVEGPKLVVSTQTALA
T6 sequence (Q92831 whole entry, the tested form may be a part): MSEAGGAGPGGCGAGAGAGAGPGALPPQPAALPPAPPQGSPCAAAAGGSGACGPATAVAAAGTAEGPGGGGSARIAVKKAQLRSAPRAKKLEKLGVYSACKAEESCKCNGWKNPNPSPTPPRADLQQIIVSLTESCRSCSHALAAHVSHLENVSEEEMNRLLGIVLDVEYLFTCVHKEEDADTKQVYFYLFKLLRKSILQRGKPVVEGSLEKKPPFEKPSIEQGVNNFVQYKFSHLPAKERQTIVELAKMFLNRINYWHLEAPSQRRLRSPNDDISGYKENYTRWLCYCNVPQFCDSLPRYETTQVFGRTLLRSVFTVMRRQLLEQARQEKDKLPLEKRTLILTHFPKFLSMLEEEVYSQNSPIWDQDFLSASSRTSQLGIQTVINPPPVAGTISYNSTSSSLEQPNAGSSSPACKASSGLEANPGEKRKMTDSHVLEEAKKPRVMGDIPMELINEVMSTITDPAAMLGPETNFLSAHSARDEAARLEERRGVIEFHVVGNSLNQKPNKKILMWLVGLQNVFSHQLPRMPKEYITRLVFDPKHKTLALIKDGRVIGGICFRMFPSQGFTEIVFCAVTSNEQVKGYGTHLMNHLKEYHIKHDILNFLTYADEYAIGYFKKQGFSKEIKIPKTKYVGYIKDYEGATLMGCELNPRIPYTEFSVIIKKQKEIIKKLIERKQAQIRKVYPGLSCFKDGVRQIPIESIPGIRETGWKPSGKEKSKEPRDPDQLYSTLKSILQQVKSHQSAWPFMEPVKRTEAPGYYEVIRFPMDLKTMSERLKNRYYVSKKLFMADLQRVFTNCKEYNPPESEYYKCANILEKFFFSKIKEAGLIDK
T5 sequence (P0C024 14-235): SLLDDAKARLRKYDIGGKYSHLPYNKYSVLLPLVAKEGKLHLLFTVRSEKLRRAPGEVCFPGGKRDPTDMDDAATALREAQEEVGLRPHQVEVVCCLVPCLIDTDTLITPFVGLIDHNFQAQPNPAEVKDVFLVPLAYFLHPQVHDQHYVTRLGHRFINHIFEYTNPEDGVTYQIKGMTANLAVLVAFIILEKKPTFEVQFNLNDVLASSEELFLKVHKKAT

% labeling at 5 μM [1] [%]	% labeling at 200 μM [2] [%]	% labeling at 200 μM [3] [%]	BSA [4]	NNMT [5]	NUDT7 [6]	OTUB2 [7]	PCAF [8]	% labeling at 200 μM [13] [%]	% labeling at 100 μM [14] [%]	kinact/KI [16] [M⁻¹ s⁻¹]	SMILES	viability at 48 h, 10 µM [9] [%]	viability at 48 h, 10 µM [10] [%]	viability at 48 h, 10 µM [11] [%]	X-ray crystal structure, soak [12]	X-ray cocrystal structure [15]
			0	0	1	0	0	100			COc1ccc(C2CCCN2C(=O)CCl)cc1 (stereo not shown) [PCM-0102938]	12	24.3	6.4		
			0	0	0	0.16	0				CS(=O)(=O)c1ccc(F)c(NC(=O)CCl)c1 [PCM-0103018]	57.6	53.6	24.3		
			0		1	0	0				O=C(CCl)NC1(c2ccc3c(c2)OCCO3)CCCC1 [PCM-0102951]	72.7	69.3	56.4		cocrystal structures of compounds PCM-0102951, PCM-0102558, and PCM-0102716 bound to NUDT7
			0	0.24	0	0	0				CC(C)(C)CCNC(=O)CCl [PCM-0102853]	99.7	91.6	102		
			0	0	0	0	0				CC(NC(=O)CCl)C(=O)N(C)C (stereo not shown) [PCM-0102754]	96	101	83.7		
			0	0.29	0	0.14	0				O=C(CCl)NC1CCCC(C(F)(F)F)C1 (stereo not shown) [PCM-0102862]	95	106	84		
			0	0	0.19	0.16	0				O=C(CCl)NC1c2ccccc2-c2ccccc21 [PCM-0102802]	61.8	82.7	58.9		
			0	0	0	0	0				O=C(CCl)NC(=O)CN1CCCC1=O [PCM-0102824]	105	111	110		

More lines, now with the values behind:

SMILES	% labeling at 5 μM [1] [%]	% labeling at 200 μM [2] [%]	% labeling at 200 μM [3] [%]	BSA [4]	NNMT [5]	NUDT7 [6]	OTUB2 [7]	PCAF [8]	% labeling at 200 μM [13] [%]	% labeling at 100 μM [14] [%]	kinact/KI [16] [M⁻¹ s⁻¹]	viability at 48 h, 10 µM [9] [%]	viability at 48 h, 10 µM [10] [%]	viability at 48 h, 10 µM [11] [%]	X-ray crystal structure, soak [12]	X-ray cocrystal structure [15]
O=C(CCl)NNC(=O)C1CC1c1ccc(Cl)cc1 (stereo not shown) [OTUB2-COV-22]	55															
O=C(CCl)Nc1nc(-c2cc(F)ccc2F)cs1 [PCM-0102496]		> 50	> 50	0	1	0.53	0	0				3.9	35.7	2.2		
O=C(Cc1cccc(O)c1)Nc1cccc(Cl)c1 [NUDT7-REV-1]															soaked them into NUDT7 crystals, which yielded a structure in complex with compound NUDT7-REV-1	
O=C(CCl)N1CCCC1c1ccc2c(c1)OCCO2 (stereo not shown) [PCM-0102298]				0		1	0	0	100			5.3	21.6	4.5		
O=C(CCl)N1CCCC1c1ccc2c(c1)OCCCO2 (stereo not shown) [PCM-0102512]				0		0.88	0	0	88			8.3	19.7	3.8		
O=C(CCl)NNC(=O)C(c1ccccc1)c1ccccc1 [OTUB2-COV-17]										100						
COc1cccc(C2CCCN2C(=O)CCl)c1 (racemic) [PCM-0102716]				0		0.68	0.09	0				7.6	34.4	3.6		cocrystal structures of compounds PCM-0102951, PCM-0102558, and PCM-0102716 bound to NUDT7
COc1ccc(C2CCCCCN2C(=O)CCl)cc1 (stereo not shown) [PCM-0102558]				0		1	0	0			233	27.4	11	15.3		
C=CC(=O)N1CCC2C(CCCN2Cc2ccccc2)C1 (stereo not shown) [PCM-0102673]				0	0	0	0	0				102	116	85		
Cl.O=C(CCl)N1CCN(c2ccccc2F)CC1 [PCM-0102373]				0	0	0	0	0				55.8	79.7	64.3		
CNC(=O)c1cccc(NC(=O)CCl)c1 [PCM-0102113]				0	0	0	0	0				25.2	55	1.7		
O=C(CCl)NC(=O)c1ccccc1 [PCM-0102414]				0	0	0	0	0				102	101	91.5		
COc1ccc(Cl)cc1NC(=O)CCl [PCM-0102370]				0	0	0.23	0.18	0				3.7	34.6	3.3		
O=C(CCl)Nc1cc2ccccc2cc1C(=O)O [PCM-0102311]				0	0.2	0.17	0.1	0				105	100	109		
O=C(CCl)Nc1ccccc1N1CCCC1 [PCM-0102135]				0	0	0	0	0				98.5	95	91.3		
